Measured values taken from PubChem BioAssay AID2060892 (Molecular Pharmacology Branch, DTP, NCI, 2025).

Test system: HOP-62 complex spheroids with HUVEC/MSC, viability
Assay: Anticancer human tumor HOP-62 cell line growth inhibition [RAS];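 note: spheroids exposed to agents for seven days before readout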;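 for viability, T/C: 100% = DMSO vehicle control viability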
Conditions: for IC50: curve of first compound; for viability, T/C: stronger effect = lower value
Procedure, shortened: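 Multi-cell-type spheroids: tumor cells plus HUVEC endothelial cells and mesenchymal stem cells. RAS-pathway inhibitors were combined with targeted agents, each dosed in half-log steps down from clinical Cmax, or from 10 microM when Cmax was unknown.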

[1] = second compound 0.00316 µM, first compound 0.0316 µM
[2] = second compound 0.00316 µM, first compound 0.1 µM
[3] = second compound 0.00316 µM, first compound 0.316 µM
[4] = second compound 0.00316 µM, first compound 1 µM
[5] = second compound 0.01 µM, first compound 0.0316 µM
[6] = second compound 0.01 µM, first compound 0.1 µM
[7] = second compound 0.01 µM, first compound 0.316 µM
[8] = second compound 0.01 µM, first compound 1 µM
[9] = second compound 0.0316 µM, first compound 0.0316 µM
[10] = second compound 0.0316 µM, first compound 0.1 µM
[11] = second compound 0.0316 µM, first compound 0.316 µM
[12] = second compound 0.0316 µM, first compound 1 µM
[13] = second compound 0.1 µM, first compound 0.0316 µM
[14] = second compound 0.1 µM, first compound 0.1 µM
[15] = second compound 0.1 µM, first compound 0.316 µM
[16] = second compound 0.1 µM, first compound 1 µM
[17] = second compound 0.316 µM, first compound 0.0316 µM
[18] = second compound 0.316 µM, first compound 0.1 µM
[19] = second compound 0.316 µM, first compound 0.316 µM
[20] = second compound 0.316 µM, first compound 1 µM
[21] = second compound 1 µM, first compound 0.0316 µM
[22] = second compound 1 µM, first compound 0.1 µM
[23] = second compound 1 µM, first compound 0.316 µM
[24] = second compound 1 µM, first compound 1 µM

CC(=O)OC12COC1CC(O)C1(C)C(=O)C(O)C3=C(C)C(OC(=O)C(O)C(NC(=O)OC(C)(C)C)c4ccccc4)CC(O)(C(OC(=O)c4ccccc4)C21)C3(C)C (stereo unspecified) + C=CC(=O)N1CCN(c2nc(OCC3CCCN3C)nc3c(F)c(-c4nc(N)cc(C)c4C(F)(F)F)c(Cl)cc23)C(C)C1
IC50 (second compound 0.00316 µM): < 31.6 nM
IC50 (second compound 0.01 µM): < 31.6 nM
IC50 (second compound 0.0316 µM): < 31.6 nM
IC50 (second compound 0.1 µM): < 31.6 nM
IC50 (second compound 0.316 µM): < 31.6 nM
IC50 (second compound 1 µM): < 31.6 nM
viability, T/C [1]: 11.2%
viability, T/C [2]: 14.7%
viability, T/C [3]: 10.4%
viability, T/C [4]: 12.3%
viability, T/C (second compound 0.00316 µM, first compound 3.16 µM): 15.1%
viability, T/C (second compound 0.00316 µM, first compound 10 µM): 20.3%
viability, T/C [5]: 10.4%
viability, T/C [6]: 11.1%
viability, T/C [7]: 13.4%
viability, T/C [8]: 10.4%
viability, T/C (second compound 0.01 µM, first compound 3.16 µM): 12.5%
viability, T/C (second compound 0.01 µM, first compound 10 µM): 16.6%
viability, T/C [9]: 9.88%
viability, T/C [10]: 11.9%
viability, T/C [11]: 11%
viability, T/C [12]: 13%
viability, T/C (second compound 0.0316 µM, first compound 3.16 µM): 15.2%
viability, T/C (second compound 0.0316 µM, first compound 10 µM): 14.6%
viability, T/C [13]: 11.6%
viability, T/C [14]: 12.4%
viability, T/C [15]: 11.9%
viability, T/C [16]: 13.6%
viability, T/C (second compound 0.1 µM, first compound 3.16 µM): 15.2%
viability, T/C (second compound 0.1 µM, first compound 10 µM): 19%
viability, T/C [17]: 9.18%
viability, T/C [18]: 9.55%
viability, T/C [19]: 10.4%
viability, T/C [20]: 10.9%
viability, T/C (second compound 0.316 µM, first compound 3.16 µM): 14.8%
viability, T/C (second compound 0.316 µM, first compound 10 µM): 20.1%
viability, T/C [21]: 10.2%
viability, T/C [22]: 10.5%
viability, T/C [23]: 13%
viability, T/C [24]: 14.2%
viability, T/C (second compound 1 µM, first compound 3.16 µM): 15.5%
viability, T/C (second compound 1 µM, first compound 10 µM): 20.1%

CCc1c2c(nc3ccc(O)cc13)-c1cc3c(c(=O)n1C2)COC(=O)[C@]3(O)CC + C=CC(=O)N1CCN(c2nc(OCC3CCCN3C)nc3c(F)c(-c4nc(N)cc(C)c4C(F)(F)F)c(Cl)cc23)C(C)C1
IC50 (second compound 0.00316 µM): < 0.949 nM
IC50 (second compound 0.01 µM): < 0.949 nM
IC50 (second compound 0.0316 µM): < 0.949 nM
IC50 (second compound 0.1 µM): < 0.949 nM
IC50 (second compound 0.316 µM): < 0.949 nM
IC50 (second compound 1 µM): < 0.949 nM
viability, T/C (second compound 0.00316 µM, first compound 0.000949 µM): 46.5%
viability, T/C (second compound 0.00316 µM, first compound 0.003 µM): 11.8%
viability, T/C (second compound 0.00316 µM, first compound 0.00949 µM): 6.88%
viability, T/C (second compound 0.00316 µM, first compound 0.03 µM): 3.96%
viability, T/C (second compound 0.00316 µM, first compound 0.0949 µM): 2.91%
viability, T/C (second compound 0.00316 µM, first compound 0.3 µM): 4.33%
viability, T/C (second compound 0.01 µM, first compound 0.000949 µM): 47.3%
viability, T/C (second compound 0.01 µM, first compound 0.003 µM): 11.6%
viability, T/C (second compound 0.01 µM, first compound 0.00949 µM): 6.73%
viability, T/C (second compound 0.01 µM, first compound 0.03 µM): 4.31%
viability, T/C (second compound 0.01 µM, first compound 0.0949 µM): 3.65%
viability, T/C (second compound 0.01 µM, first compound 0.3 µM): 2.46%
viability, T/C (second compound 0.0316 µM, first compound 0.000949 µM): 42.5%
viability, T/C (second compound 0.0316 µM, first compound 0.003 µM): 9.52%
viability, T/C (second compound 0.0316 µM, first compound 0.00949 µM): 5.4%
viability, T/C (second compound 0.0316 µM, first compound 0.03 µM): 3.77%
viability, T/C (second compound 0.0316 µM, first compound 0.0949 µM): 2.66%
viability, T/C (second compound 0.0316 µM, first compound 0.3 µM): 2.57%
viability, T/C (second compound 0.1 µM, first compound 0.000949 µM): 47.7%
viability, T/C (second compound 0.1 µM, first compound 0.003 µM): 10.1%
viability, T/C (second compound 0.1 µM, first compound 0.00949 µM): 6.42%
viability, T/C (second compound 0.1 µM, first compound 0.03 µM): 3.2%
viability, T/C (second compound 0.1 µM, first compound 0.0949 µM): 3.67%
viability, T/C (second compound 0.1 µM, first compound 0.3 µM): 2.48%
viability, T/C (second compound 0.316 µM, first compound 0.000949 µM): 40.5%
viability, T/C (second compound 0.316 µM, first compound 0.003 µM): 10.3%
viability, T/C (second compound 0.316 µM, first compound 0.00949 µM): 8.01%
viability, T/C (second compound 0.316 µM, first compound 0.03 µM): 5.51%
viability, T/C (second compound 0.316 µM, first compound 0.0949 µM): 4.05%
viability, T/C (second compound 0.316 µM, first compound 0.3 µM): 2.72%
viability, T/C (second compound 1 µM, first compound 0.000949 µM): 43.2%
viability, T/C (second compound 1 µM, first compound 0.003 µM): 12.4%
viability, T/C (second compound 1 µM, first compound 0.00949 µM): 6.37%
viability, T/C (second compound 1 µM, first compound 0.03 µM): 4.48%
viability, T/C (second compound 1 µM, first compound 0.0949 µM): 2.92%
viability, T/C (second compound 1 µM, first compound 0.3 µM): 2.71%

Nc1ccn(C2OC(CO)C(O)C2(F)F)c(=O)n1 (stereo unspecified) + C=CC(=O)N1CCN(c2nc(OCC3CCCN3C)nc3c(F)c(-c4nc(N)cc(C)c4C(F)(F)F)c(Cl)cc23)C(C)C1
IC50 (second compound 0.00316 µM): 4.79 nM
IC50 (second compound 0.01 µM): 4 nM
IC50 (second compound 0.0316 µM): 3.8 nM
IC50 (second compound 0.1 µM): 3.57 nM
IC50 (second compound 0.316 µM): 3.88 nM
IC50 (second compound 1 µM): 3.32 nM
viability, T/C (second compound 0.00316 µM, first compound 0.00316 µM): 71.5%
viability, T/C (second compound 0.00316 µM, first compound 0.01 µM): 11.7%
viability, T/C [1]: 4.51%
viability, T/C [2]: 3.58%
viability, T/C [3]: 3.88%
viability, T/C [4]: 4.22%
viability, T/C (second compound 0.01 µM, first compound 0.00316 µM): 61%
viability, T/C (second compound 0.01 µM, first compound 0.01 µM): 7.13%
viability, T/C [5]: 4.46%
viability, T/C [6]: 3.64%
viability, T/C [7]: 3.98%
viability, T/C [8]: 4.49%
viability, T/C (second compound 0.0316 µM, first compound 0.00316 µM): 57.3%
viability, T/C (second compound 0.0316 µM, first compound 0.01 µM): 11.7%
viability, T/C [9]: 4.71%
viability, T/C [10]: 4.6%
viability, T/C [11]: 4.09%
viability, T/C [12]: 3.59%
viability, T/C (second compound 0.1 µM, first compound 0.00316 µM): 54.7%
viability, T/C (second compound 0.1 µM, first compound 0.01 µM): 10.5%
viability, T/C [13]: 3.96%
viability, T/C [14]: 3.63%
viability, T/C [15]: 4.57%
viability, T/C [16]: 3.1%
viability, T/C (second compound 0.316 µM, first compound 0.00316 µM): 58.8%
viability, T/C (second compound 0.316 µM, first compound 0.01 µM): 9.95%
viability, T/C [17]: 5.61%
viability, T/C [18]: 4.79%
viability, T/C [19]: 5.44%
viability, T/C [20]: 3.53%
viability, T/C (second compound 1 µM, first compound 0.00316 µM): 51.9%
viability, T/C (second compound 1 µM, first compound 0.01 µM): 6.83%
viability, T/C [21]: 4.34%
viability, T/C [22]: 3.74%
viability, T/C [23]: 4.68%
viability, T/C [24]: 3.28%
